Laboratory results from patent US8513271B2, “Pyrimidine compounds as delta opioid receptor modulators” (Janssen Pharmaceutica, NV, priority 2009, dated 2013).
Read-outs that look alike come from different tables or passages of the source. Blank lines part the entries; values can stand above or below the compound they belong to.

Experiments:
delta opioid receptor [1] = target: T1, delta opioid receptor (Rattus norvegicus, UniProt P33533); assay: Rat brain delta opioid receptor binding assay; details: rat forebrain, [3H]naltrindole ligand
T1 construct: the forebrains were homogenized in Tris buffer in a Teflon®-glass homogenizer; from tissue; host or cells: forebrain of male Wistar rats, particulate (membrane) preparation
T1 sequence (P33533 whole entry): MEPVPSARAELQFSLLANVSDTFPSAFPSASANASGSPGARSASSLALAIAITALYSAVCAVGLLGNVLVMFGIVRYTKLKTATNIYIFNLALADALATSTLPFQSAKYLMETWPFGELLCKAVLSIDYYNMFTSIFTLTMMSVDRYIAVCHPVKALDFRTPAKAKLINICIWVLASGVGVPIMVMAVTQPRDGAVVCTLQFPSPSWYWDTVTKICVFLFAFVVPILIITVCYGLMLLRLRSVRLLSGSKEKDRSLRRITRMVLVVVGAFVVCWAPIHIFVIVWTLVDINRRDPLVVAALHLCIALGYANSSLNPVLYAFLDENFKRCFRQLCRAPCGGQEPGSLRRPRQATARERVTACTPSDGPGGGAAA

delta opioid receptor [2] = target: T2, delta opioid receptor (Mus musculus, UniProt P32300); assay: [35S]GTPγS binding assay in NG108-15 cell membranes (delta opioid functional assay), 200 nM screen; assay type: biochemical; details: NG108-15 cell membranes; for EC50 / GTPγS δ-RelEfficacy @200 nM: averages if tested more than once; for GTPγS δ-opioid receptor Rel Efficacy: relative efficacy from dose response; for GTPγS δ-RelEfficacy @200 nM: 200 nM test compound, relative to calculated max of SNC80 dose response curve
T2 construct: NG108-15 cell membranes were purchased from Applied Cell Sciences (Rockville, Md.); host or cells: NG108-15 cell membranes
T2 sequence (P32300 whole entry): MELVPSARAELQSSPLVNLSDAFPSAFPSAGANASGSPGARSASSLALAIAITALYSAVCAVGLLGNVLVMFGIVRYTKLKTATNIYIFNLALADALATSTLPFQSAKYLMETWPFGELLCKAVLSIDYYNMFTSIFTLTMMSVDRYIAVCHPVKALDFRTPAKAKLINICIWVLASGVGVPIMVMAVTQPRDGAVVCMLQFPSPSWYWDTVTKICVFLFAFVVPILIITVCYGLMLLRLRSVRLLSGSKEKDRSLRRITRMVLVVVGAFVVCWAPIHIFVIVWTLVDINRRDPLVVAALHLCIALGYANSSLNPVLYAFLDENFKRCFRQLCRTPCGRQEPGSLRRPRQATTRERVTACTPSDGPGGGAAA

[3] = read-out: δ-binding (Naltrindole ligand) Ki
[4] = read-out: GTPγS δ-opioid receptor EC50
[5] = δ-binding (Naltrindole ligand) Ki
[6] = GTPγS δ-opioid receptor EC50 (μM)

SMILES: COc1ccc(Oc2nc(-c3cncc(C#N)c3)ncc2NCC2COCCN2)cc1 (racemic) [Cpd 279]
Ki (delta opioid receptor [1]; [3]): 5 nM
EC50 (delta opioid receptor [2]; [4]): 0.17 µM
GTPγS δ-opioid receptor Rel Efficacy (delta opioid receptor [2]): 1.004

SMILES: Cc1nc2ccc(Oc3nc(-c4cncc(C#N)c4)ncc3NC[C@@H]3CCCN3)cc2s1 [Cpd 88]
Ki (delta opioid receptor [1]; [3]): 14 nM
EC50 (delta opioid receptor [2]; [4]): 0.478 µM
GTPγS δ-opioid receptor Rel Efficacy (delta opioid receptor [2]): 0.538

SMILES: COc1ccc(Oc2nc(-c3cncnc3)ncc2NC[C@@H]2C[C@H](F)CN2)cc1 [Cpd 89]
Ki (delta opioid receptor [1]; [5]): 10 nM
EC50 (delta opioid receptor [2]; [4]): 1.31 µM

SMILES: Cc1nc2ccc(Oc3nc(-c4cncc(C#N)c4)ncc3NC[C@@H]3CCCN3)cc2s1 [Cpd 90]
Ki (delta opioid receptor [1]; [5]): 9 nM
EC50 (delta opioid receptor [2]; [4]): 0.923 µM

SMILES: Cc1nc2ccc(Oc3nc(-c4cncnc4)ncc3NC[C@@H]3CCCN3)cc2s1 [Cpd 91]
Ki (delta opioid receptor [1]; [5]): 22 nM
EC50 (delta opioid receptor [2]; [4]): > 10 µM

SMILES: COc1ccc(Oc2nc(-c3cc(C)cc(C)c3)ncc2NC[C@@H]2CCCN2)cc1 [Cpd 92]
Ki (delta opioid receptor [1]; [5]): 35 nM
EC50 (delta opioid receptor [2]; [4]): 0.47 µM

SMILES: COc1ccc(Oc2nc(-c3cc(Cl)cc(Cl)c3)ncc2NC[C@@H]2CCCN2)cc1 [Cpd 94]
Ki (delta opioid receptor [1]; [3]): 143 nM

SMILES: COc1ccc(Oc2nc(-c3ccc(C#N)nc3)ncc2NC[C@@H]2CCCN2)cc1 [Cpd 95]
Ki (delta opioid receptor [1]; [5]): 11 nM
EC50 (delta opioid receptor [2]; [4]): 0.708 µM

SMILES: COc1c(F)cc(Oc2nc(-c3cncc(C#N)c3)ncc2NC[C@@H]2CCCN2)cc1F [Cpd 96]
Ki (delta opioid receptor [1]; [5]): 35 nM
EC50 (delta opioid receptor [2]; [4]): 0.749 µM

SMILES: COc1c(F)cc(Oc2nc(-c3cncnc3)ncc2NC[C@@H]2CCCN2)cc1F [Cpd 97]
Ki (delta opioid receptor [1]; [5]): 39 nM
EC50 (delta opioid receptor [2]; [4]): 7.12 µM

SMILES: COc1cccc(Oc2nc(-c3cncnc3)ncc2NC[C@@H]2CCCN2)c1 [Cpd 99]
Ki (delta opioid receptor [1]; [5]): 59 nM
EC50 (delta opioid receptor [2]; [4]): 0.939 µM

SMILES: COc1cccc(Oc2nc(-c3cccnc3)ncc2NC[C@@H]2CCCN2)c1 [Cpd 100]
Ki (delta opioid receptor [1]; [5]): 33 nM
EC50 (delta opioid receptor [2]; [4]): 1.62 µM

SMILES: COc1ccc(Oc2nc(-c3cncc(F)c3)ncc2NC[C@@H]2CCCN2)c(F)c1F [Cpd 102]
Ki (delta opioid receptor [1]; [5]): 3 nM
EC50 (delta opioid receptor [2]; [4]): 0.255 µM

SMILES: COc1ccc(Oc2nc(-c3cncnc3)ncc2NC[C@@H]2CCCN2)c(F)c1F [Cpd 103]
Ki (delta opioid receptor [1]; [5]): 11 nM
EC50 (delta opioid receptor [2]; [4]): 0.311 µM

SMILES: COc1ccc(Oc2nc(-c3cncc(S(C)(=O)=O)c3)ncc2NC[C@@H]2CCCN2)cc1 [Cpd 108]
Ki (delta opioid receptor [1]; [3]): 107 nM

SMILES: FC(F)Oc1ccc(Oc2nc(-c3cncnc3)ncc2NC[C@@H]2CCCN2)cc1 [Cpd 111]
Ki (delta opioid receptor [1]; [5]): 9 nM
EC50 (delta opioid receptor [2]; [4]): 0.491 µM

Ki (delta opioid receptor [1]; [3]): 6 nM
EC50 (delta opioid receptor [2]; [4]): 0.33 µM
GTPγS δ-opioid receptor Rel Efficacy (delta opioid receptor [2]): 1.082
SMILES: Fc1cncc(-c2ncc(NC[C@@H]3CCCN3)c(Oc3ccc(OC(F)F)cc3)n2)c1 [Cpd 112]

SMILES: CCCOc1ccc(Oc2nc(-c3cncnc3)ncc2NC[C@@H]2CCCN2)cc1 [Cpd 114]
Ki (delta opioid receptor [1]; [5]): 8 nM
EC50 (delta opioid receptor [2]; [4]): 0.306 µM

SMILES: CCCOc1ccc(Oc2nc(-c3cncc(F)c3)ncc2NC[C@@H]2CCCN2)cc1 [Cpd 115]
Ki (delta opioid receptor [1]; [5]): 52 nM
EC50 (delta opioid receptor [2]; [4]): 2.71 µM

Ki (delta opioid receptor [1]; [3]): 157 nM
SMILES: COc1ccc(Oc2nc(-c3cccc4[nH]ccc34)ncc2NC[C@@H]2CCCN2)cc1 [Cpd 117]

SMILES: COc1ccc(Oc2nc(-c3ccc4cc[nH]c4c3)ncc2NC[C@@H]2CCCN2)cc1 [Cpd 118]
Ki (delta opioid receptor [1]; [3]): 155 nM

SMILES: COc1ccc(Oc2nc(-c3cccc4cc[nH]c34)ncc2NC[C@@H]2CCCN2)cc1 [Cpd 119]
Ki (delta opioid receptor [1]; [3]): 4020 nM

Ki (delta opioid receptor [1]; [3]): 104 nM
SMILES: COc1ccc(Oc2nc(-c3cnccn3)ncc2NC[C@@H]2CCCN2)cc1 [Cpd 120]

SMILES: N#Cc1cncc(-c2ncc(NC[C@@H]3CCCN3)c(Oc3ccc(OCC(F)(F)F)cc3)n2)c1 [Cpd 122]
Ki (delta opioid receptor [1]; [3]): 122 nM

SMILES: CCCCOc1ccc(Oc2nc(-c3cncc(C#N)c3)ncc2NC[C@@H]2CCCN2)cc1 [Cpd 125]
Ki (delta opioid receptor [1]; [5]): 78 nM

SMILES: CCCCOc1ccc(Oc2nc(-c3cncnc3)ncc2NC[C@@H]2CCCN2)cc1 [Cpd 126]
Ki (delta opioid receptor [1]; [3]): 565 nM

SMILES: CCCCOc1ccc(Oc2nc(-c3cncc(F)c3)ncc2NC[C@@H]2CCCN2)cc1 [Cpd 127]
Ki (delta opioid receptor [1]; [3]): 224 nM

SMILES: COc1ccc(Oc2nc(-c3cncc(F)c3)ncc2NCC2CNCCO2)cc1 (stereo not drawn) [Cpd 276]
Ki (delta opioid receptor [1]; [3]): 227 nM

SMILES: COc1ccc(Oc2nc(-c3cncc(C#N)c3)ncc2NC2CC(N)C2)cc1 (stereo not drawn) [Cpd 303]
GTPγS δ-RelEfficacy @200 nM (delta opioid receptor [2]): 0.622
EC50 (delta opioid receptor [2]; [4]): 0.114 µM
GTPγS δ-opioid receptor Rel Efficacy (delta opioid receptor [2]): 1.047

SMILES: COc1ccc(Oc2nc(-c3cccnc3)ncc2N[C@H]2CC[C@@H](N)CC2)cc1 [Cpd 305]
GTPγS δ-RelEfficacy @200 nM (delta opioid receptor [2]): 0.780
EC50 (delta opioid receptor [2]; [6]): 0.09 µM
GTPγS δ-opioid receptor Rel Efficacy (delta opioid receptor [2]): 1.081

SMILES: COc1ccc(Oc2nc(-c3cccnc3)ncc2NC2CCCC(N)C2)cc1 (stereo not drawn) [Cpd 306]
GTPγS δ-RelEfficacy @200 nM (delta opioid receptor [2]): 0.910
EC50 (delta opioid receptor [2]; [6]): 0.031 µM
GTPγS δ-opioid receptor Rel Efficacy (delta opioid receptor [2]): 1.127
